Laboratory results taken from patent publication US20150105252A1, “SUBSTITUTED PYRAZOLES AS HERBICIDES” (E I DU PONT DE NEMOURS AND COMPANY, priority 2013, published 2015).

Legend:
barnyardgrass [1] = experiment: Test A preemergence; assay type: in vivo, Echinochloa crus-galli; conditions: Preemergence, 0 to 100 scale, 0 no effect, 100 complete control
Source text: (§1) Seeds of plant species selected from barnyardgrass (Echinochloa crus-galli), kochia (Kochia scoparia), common ragweed (Ambrosia elation), Italian ryegrass (Lolium multiflorum), crabgrass, large (large crabgrass, Digitaria sanguinalis), foxtail, giant (giant foxtail, Setaria faberii), morningglory (Ipomoea spp.), pigweed (redroot pigweed, Amaranthus retroflexus), velvetleaf (Abutilon theophrasti), wheat (Triticum aestivum), and corn (Zea mays) were planted into a blend of loam soil and sand and treated preemergence with a directed soil spray using test chemicals formulated in a non-phytotoxic solvent mixture which included a surfactant.
(§2) At the same time, plants selected from these crop and weed species and also blackgrass (Alopecurus myosuroides), and galium (catchweed bedstraw, Galium aparine) were planted in pots containing the same blend of loam soil and sand and treated with postemergence applications of test chemicals formulated in the same manner. Plants ranged in height from 2 to 10 cm and were in the one- to two-leaf stage for the postemergence treatment. Treated plants and untreated controls were maintained in a greenhouse for approximately 10 days, after which time all treated plants were compared to untreated controls and visually evaluated for injury. Plant response ratings, summarized in Table A, are based on a 0 to 100 scale where 0 is no effect and 100 is complete control. A dash (-) response means no test result.

crabgrass, large [2] = experiment: Test A preemergence; assay type: in vivo, Digitaria sanguinalis; conditions: Preemergence, 0 to 100 scale, 0 no effect, 100 complete control
Source text: as §1, §2

foxtail, giant [3] = experiment: Test A preemergence; assay type: in vivo, Setaria faberii; conditions: Preemergence, 1000 g ai/ha; 0 to 100 scale, 0 no effect, 100 complete control
Source text: as §1, §2

morningglory [4] = experiment: Test A preemergence; assay type: in vivo, Ipomoea spp.; conditions: Preemergence, 0 to 100 scale, 0 no effect, 100 complete control
Source text: as §1, §2

pigweed [5] = experiment: Test A preemergence; assay type: in vivo, Amaranthus retroflexus; conditions: Preemergence, 1000 g ai/ha; 0 to 100 scale, 0 no effect, 100 complete control
Source text: as §1, §2

velvetleaf [6] = experiment: Test A preemergence; assay type: in vivo, Abutilon theophrasti; conditions: Preemergence, 0 to 100 scale, 0 no effect, 100 complete control
Source text: as §1, §2

wheat [7] = experiment: Test A preemergence; assay type: in vivo, Triticum aestivum
Source text: as §1, §2

corn [8] = experiment: Test A preemergence; assay type: in vivo, Zea mays; conditions: Preemergence, 1000 g ai/ha; 0 to 100 scale, 0 no effect, 100 complete control
Source text: as §1, §2

barnyardgrass [9] = experiment: Test A postemergence; assay type: in vivo, Echinochloa crus-galli; conditions: Postemergence, 1000 g ai/ha; visual rating after approx. 10 days, 0 to 100 scale (0 no effect, 100 complete control)
Source text: as §1, §2

crabgrass, large [10] = experiment: Test A postemergence; assay type: in vivo, Digitaria sanguinalis; conditions: Postemergence, 1000 g ai/ha; visual rating after approx. 10 days, 0 to 100 scale (0 no effect, 100 complete control)
Source text: as §1, §2

foxtail, giant [11] = experiment: Test A postemergence; assay type: in vivo, Setaria faberii; conditions: Postemergence, 1000 g ai/ha; visual rating after approx. 10 days, 0 to 100 scale (0 no effect, 100 complete control)
Source text: as §1, §2

morningglory [12] = experiment: Test A postemergence; assay type: in vivo, Ipomoea spp.; conditions: Postemergence, 1000 g ai/ha; visual rating after approx. 10 days, 0 to 100 scale (0 no effect, 100 complete control)
Source text: as §1, §2

pigweed [13] = experiment: Test A postemergence; assay type: in vivo, Amaranthus retroflexus; conditions: Postemergence, 1000 g ai/ha; visual rating after approx. 10 days, 0 to 100 scale (0 no effect, 100 complete control)
Source text: as §1, §2

velvetleaf [14] = experiment: Test A postemergence; assay type: in vivo, Abutilon theophrasti; conditions: Postemergence, 1000 g ai/ha; visual rating after approx. 10 days, 0 to 100 scale (0 no effect, 100 complete control)
Source text: as §1, §2

wheat [15] = experiment: Test A postemergence; assay type: in vivo, Triticum aestivum; conditions: Postemergence, 1000 g ai/ha; visual rating after approx. 10 days, 0 to 100 scale (0 no effect, 100 complete control)
Source text: as §1, §2

corn [16] = experiment: Test A postemergence; assay type: in vivo, Zea mays; conditions: Postemergence, 1000 g ai/ha; visual rating after approx. 10 days, 0 to 100 scale (0 no effect, 100 complete control)
Source text: as §1, §2

[17] = Preemergence, 1000 g ai/ha, 0 to 100 scale, 0 no effect, 100 complete control

Structure (SMILES)	Barnyardgrass plant response rating (barnyardgrass [1]; 1000 g ai/ha)	Crabgrass, Large plant response rating (crabgrass, large [2]; 1000 g ai/ha)	Foxtail, Giant plant response rating (foxtail, giant [3])	Morningglory plant response rating (morningglory [4]; 1000 g ai/ha)	Pigweed plant response rating (pigweed [5])	Velvetleaf plant response rating (velvetleaf [6]; 1000 g ai/ha)	Wheat plant response rating (wheat [7]; [17])	Corn plant response rating (corn [8])	Barnyardgrass plant response rating (barnyardgrass [9])	Crabgrass, Large plant response rating (crabgrass, large [10])	Foxtail, Giant plant response rating (foxtail, giant [11])	Morningglory plant response rating (morningglory [12])	Pigweed plant response rating (pigweed [13])	Velvetleaf plant response rating (velvetleaf [14])	Wheat plant response rating (wheat [15])	Corn plant response rating (corn [16])	also measured
CCNC(=O)c1cc(C2CC2)n(Cc2cccc(OC(F)(F)F)c2)n1 [Compound 39]	0	10	0	0	0	0	0	0	10	10	10	60	40	10	0	10	
CCCNC(=O)c1cc(C2CC2)n(Cc2cccc(OC(F)(F)F)c2)n1 [Compound 38]	0	20	0	0	0	0	0	0	10	10	10	100	40	50	0	30	
CCc1cc(C(=O)NC2CC2)nn1Cc1cccc(OC(F)(F)F)c1 [Compound 26]	80	100	100	90	100	100	40	40	70	90	100	100	100	100	50	70	
CCc1cc(C(=O)NC(C)(C)C)nn1Cc1cccc(OC(F)(F)F)c1 [Compound 59]	0	10	10	0	0	0	0	0	10	10	20	50	50	10	0	10	Wheat plant response rating (wheat [7]; preemergence, 500 g ai/ha, visual injury after approx. 10 days, 0 to 100 scale (0 no effect, 100 complete control)): 10
Cc1cc(C(=O)NC(C)(C)C)nn1Cc1cccc(C(F)(F)F)c1 [Compound 1]									30	30		20		30			Barnyardgrass plant response rating (barnyardgrass [1]; 2000 g ai/ha): 10; Crabgrass, Large plant response rating (crabgrass, large [2]; 2000 g ai/ha): 10; Morningglory plant response rating (morningglory [4]; 2000 g ai/ha): 0; Velvetleaf plant response rating (velvetleaf [6]; 2000 g ai/ha): 0
